From ChEMBL document CHEMBL2407058, “Design, Synthesis, and Antiplasmodial Activity of Hybrid Compounds Based on (2R,3S)-N-Benzoyl-3-phenylisoserine” (ACS Med Chem Lett, 2013) come the findings set out here.

For orientation: IC50 means the midpoint of a concentration-inhibition curve. Read a high IC50 as weaker potency in that assay.

The subject of the first data set is Plasmodium falciparum. Description: Antiplasmodial activity against erythrocytic stage of multidrug-resistant Plasmodium falciparum Thailand K1 infected in human A positive RBC after 48 hrs by [3H]hypoxanthine incorporation assay.
Details: not given
It is filed as functional, organism-based.
In the case of `O=C(N[C@@H](c1ccccc1)[C@@H](O)C(=O)O)c1ccccc1`, the IC50 is above 10000 nM.

The molecule `OCc1cccc(Nc2ccnc3cc(Cl)ccc23)c1` displayed an IC50 of 300 nM.

`O=C(N[C@@H](c1ccccc1)[C@@H](O)C(=O)NCCNc1ccnc2cc(Cl)ccc12)c1ccccc1`: the midpoint of inhibition, the IC50, lay at 360 nM.

Molecule `O=C(N[C@@H](c1ccccc1)[C@@H](O)C(=O)NCCCNc1ccnc2cc(Cl)ccc12)c1ccccc1` came in with an IC50 of 1000 nM.

In turn, `[N-]=[N+]=NCCCNc1ccnc2cc(Cl)ccc12` yielded an IC50 of 330 nM.

As for `[N-]=[N+]=NCc1cccc(Nc2ccnc3cc(Cl)ccc23)c1`, half-maximal inhibition (IC50) required 1110 nM.

`O=C(N[C@@H](c1ccccc1)[C@@H](O)C(=O)NCc1cn(CCNc2ccnc3cc(Cl)ccc23)nn1)c1ccccc1` had an IC50 of 1110 nM.

On to `O=C(N[C@@H](c1ccccc1)[C@@H](O)C(=O)NCc1cn(CCCNc2ccnc3cc(Cl)ccc23)nn1)c1ccccc1`, for which the IC50 was found to be 390 nM.

Molecule `O=C(N[C@@H](c1ccccc1)[C@@H](O)C(=O)NCc1cn(Cc2cccc(Nc3ccnc4cc(Cl)ccc34)c2)nn1)c1ccccc1` returned an IC50 of 2440 nM.

In turn, `O=C(N[C@@H](c1ccccc1)[C@@H](O)C(=O)NCc1cn(Cc2ccccc2Nc2ccnc3cc(Cl)ccc23)nn1)c1ccccc1` showed an IC50 of 3240 nM.

With `CC(=O)O[C@@H](C(=O)O)[C@@H](NC(=O)c1ccccc1)c1ccccc1`, the IC50 is above 10000 nM.

The molecule `C[C@H]1[C@H](OC(=O)[C@H](O)[C@@H](NC(=O)c2ccccc2)c2ccccc2)O[C@@H]2O[C@@]3(C)CC[C@H]4[C@H](C)CC[C@@H]1[C@@]24OO3` returned an IC50 of 0.7 nM.

Turning to `CC(=O)O[C@@H](C(=O)O[C@@H]1O[C@@H]2O[C@@]3(C)CC[C@H]4[C@H](C)CC[C@@H]([C@H]1C)[C@@]24OO3)[C@@H](NC(=O)c1ccccc1)c1ccccc1`, the IC50 came to 0.5 nM.

Molecule `CC(=O)O[C@@H](C(=O)OCCNc1ccnc2cc(Cl)ccc12)[C@@H](NC(=O)c1ccccc1)c1ccccc1` returned an IC50 of 250 nM.

`CC(=O)O[C@@H](C(=O)OCCCNc1ccnc2cc(Cl)ccc12)[C@@H](NC(=O)c1ccccc1)c1ccccc1` displayed an IC50 of 220 nM.

Molecule `C[C@H]1[C@@H](O)O[C@@H]2O[C@@]3(C)CC[C@H]4[C@H](C)CC[C@@H]1[C@@]24OO3` (mixture of isomers) [ARTENIMOL] came in with an IC50 of 1.8 nM.

In the case of `C[C@@H]1CC[C@H]2[C@@H](C)C(=O)O[C@@H]3O[C@@]4(C)CC[C@@H]1[C@]32OO4` [ARTEMISININ], half-maximal inhibition (IC50) required 3.2 nM.

In a further data set the test system is L6. Nature of the data set: Cytotoxicity against rat L6 cells after 70 hrs by Alamar Blue assay. The settings on record: L6, 70 h. The class given is cell-based. (Alamar Blue is a resazurin reagent that responds to reducing activity.)
`O=C(N[C@@H](c1ccccc1)[C@@H](O)C(=O)O)c1ccccc1` had an IC50 above 100000 nM.

In turn, `OCc1cccc(Nc2ccnc3cc(Cl)ccc23)c1` gave an IC50 of 21100 nM.

`O=C(N[C@@H](c1ccccc1)[C@@H](O)C(=O)NCCNc1ccnc2cc(Cl)ccc12)c1ccccc1`: the IC50 stood at 15100 nM.

Molecule `O=C(N[C@@H](c1ccccc1)[C@@H](O)C(=O)NCCCNc1ccnc2cc(Cl)ccc12)c1ccccc1` had a 50% inhibitory concentration (IC50) of 28300 nM.

Consider `[N-]=[N+]=NCCCNc1ccnc2cc(Cl)ccc12`, for which the IC50 was 9480 nM.

`[N-]=[N+]=NCc1cccc(Nc2ccnc3cc(Cl)ccc23)c1` had an IC50 of 76600 nM.

The molecule `O=C(N[C@@H](c1ccccc1)[C@@H](O)C(=O)NCc1cn(CCNc2ccnc3cc(Cl)ccc23)nn1)c1ccccc1` gave an IC50 of 85600 nM.

`O=C(N[C@@H](c1ccccc1)[C@@H](O)C(=O)NCc1cn(CCCNc2ccnc3cc(Cl)ccc23)nn1)c1ccccc1` yielded an IC50 of 88200 nM.

In turn, `O=C(N[C@@H](c1ccccc1)[C@@H](O)C(=O)NCc1cn(Cc2cccc(Nc3ccnc4cc(Cl)ccc34)c2)nn1)c1ccccc1` returned an IC50 of 67900 nM.

The molecule `O=C(N[C@@H](c1ccccc1)[C@@H](O)C(=O)NCc1cn(Cc2ccccc2Nc2ccnc3cc(Cl)ccc23)nn1)c1ccccc1` registered an IC50 of 30100 nM.

Take `CC(=O)O[C@@H](C(=O)O)[C@@H](NC(=O)c1ccccc1)c1ccccc1`: the IC50 is above 100000 nM.

Consider `C[C@H]1[C@H](OC(=O)[C@H](O)[C@@H](NC(=O)c2ccccc2)c2ccccc2)O[C@@H]2O[C@@]3(C)CC[C@H]4[C@H](C)CC[C@@H]1[C@@]24OO3`, for which it took 1030 nM to reach half-maximal inhibition (IC50).

`CC(=O)O[C@@H](C(=O)O[C@@H]1O[C@@H]2O[C@@]3(C)CC[C@H]4[C@H](C)CC[C@@H]([C@H]1C)[C@@]24OO3)[C@@H](NC(=O)c1ccccc1)c1ccccc1` registered an IC50 of 830 nM.

With `CC(=O)O[C@@H](C(=O)OCCNc1ccnc2cc(Cl)ccc12)[C@@H](NC(=O)c1ccccc1)c1ccccc1`, the IC50 amounted to 25200 nM.

As to `CC(=O)O[C@@H](C(=O)OCCCNc1ccnc2cc(Cl)ccc12)[C@@H](NC(=O)c1ccccc1)c1ccccc1`, 24200 nM corresponded to half-maximal inhibition (IC50).

Consider `C[C@H]1[C@@H](O)O[C@@H]2O[C@@]3(C)CC[C@H]4[C@H](C)CC[C@@H]1[C@@]24OO3` (mixture of isomers) [ARTENIMOL], for which inhibition was half-maximal at 730 nM (IC50).

`COc1cc([C@@H]2c3cc4c(cc3[C@H](O)[C@H]3COC(=O)[C@H]23)OCO4)cc(OC)c1OC` [PODOFILOX] showed an IC50 of 20 nM.

The next data set concerns Plasmodium falciparum. Description: Ratio of dihydroartemisinin IC50 to compound IC50 for erythrocytic stage of chloroquine-resistant Plasmodium falciparum IndoChina W2. It is filed as functional.
Details: not given
As for `C[C@H]1[C@H](OC(=O)[C@H](O)[C@@H](NC(=O)c2ccccc2)c2ccccc2)O[C@@H]2O[C@@]3(C)CC[C@H]4[C@H](C)CC[C@@H]1[C@@]24OO3`, the “Ratio IC50” value stood at 3.

`CC(=O)O[C@@H](C(=O)O[C@@H]1O[C@@H]2O[C@@]3(C)CC[C@H]4[C@H](C)CC[C@@H]([C@H]1C)[C@@]24OO3)[C@@H](NC(=O)c1ccccc1)c1ccccc1`: the “Ratio IC50” value is 3.

Tested on in a further data set: not listed separately
Nature of the data set: Selectivity index, ratio of IC50 for rat L6 cells to IC50 for erythrocytic stage of chloroquine-resistant Plasmodium falciparum IndoChina W2. The settings on record: read-out: Ratio IC50. The class given is toxicity, cell-based.
With `OCc1cccc(Nc2ccnc3cc(Cl)ccc23)c1`, the selectivity ratio worked out at 70.4.

For the molecule `O=C(N[C@@H](c1ccccc1)[C@@H](O)C(=O)NCCNc1ccnc2cc(Cl)ccc12)c1ccccc1`, the selectivity ratio was determined as 27.

Consider `O=C(N[C@@H](c1ccccc1)[C@@H](O)C(=O)NCCCNc1ccnc2cc(Cl)ccc12)c1ccccc1`, for which the selectivity ratio was 59.

Consider `[N-]=[N+]=NCCCNc1ccnc2cc(Cl)ccc12`, for which the selectivity ratio turned out to be 55.8.

Take `[N-]=[N+]=NCc1cccc(Nc2ccnc3cc(Cl)ccc23)c1`: the selectivity ratio was found to be 139.

Turning to `O=C(N[C@@H](c1ccccc1)[C@@H](O)C(=O)NCc1cn(CCNc2ccnc3cc(Cl)ccc23)nn1)c1ccccc1`, the selectivity ratio was 31.6.

As for `O=C(N[C@@H](c1ccccc1)[C@@H](O)C(=O)NCc1cn(CCCNc2ccnc3cc(Cl)ccc23)nn1)c1ccccc1`, the selectivity ratio was 52.2.

As to `O=C(N[C@@H](c1ccccc1)[C@@H](O)C(=O)NCc1cn(Cc2cccc(Nc3ccnc4cc(Cl)ccc34)c2)nn1)c1ccccc1`, the selectivity ratio was found to be 242.

Regarding `O=C(N[C@@H](c1ccccc1)[C@@H](O)C(=O)NCc1cn(Cc2ccccc2Nc2ccnc3cc(Cl)ccc23)nn1)c1ccccc1`, the selectivity ratio was determined as 28.6.

With `C[C@H]1[C@H](OC(=O)[C@H](O)[C@@H](NC(=O)c2ccccc2)c2ccccc2)O[C@@H]2O[C@@]3(C)CC[C@H]4[C@H](C)CC[C@@H]1[C@@]24OO3`, the selectivity ratio stood at 206.

Turning to `CC(=O)O[C@@H](C(=O)O[C@@H]1O[C@@H]2O[C@@]3(C)CC[C@H]4[C@H](C)CC[C@@H]([C@H]1C)[C@@]24OO3)[C@@H](NC(=O)c1ccccc1)c1ccccc1`, the selectivity ratio amounted to 166.

As for `CC(=O)O[C@@H](C(=O)OCCNc1ccnc2cc(Cl)ccc12)[C@@H](NC(=O)c1ccccc1)c1ccccc1`, the selectivity ratio was 114.

In the case of `CC(=O)O[C@@H](C(=O)OCCCNc1ccnc2cc(Cl)ccc12)[C@@H](NC(=O)c1ccccc1)c1ccccc1`, the selectivity ratio was determined as 151.

As for `C[C@H]1[C@@H](O)O[C@@H]2O[C@@]3(C)CC[C@H]4[C@H](C)CC[C@@H]1[C@@]24OO3` (mixture of isomers) [ARTENIMOL], the selectivity ratio turned out to be 243.

The subject of another data set is Plasmodium falciparum. Nature of the data set: Antiplasmodial activity against erythrocytic stage of chloroquine-resistant Plasmodium falciparum IndoChina W2 infected in human A positive RBC after 48 hrs by [3H]hypoxanthine incorporation assay. The class given is functional, organism-based.
Details: not given
For `O=C(N[C@@H](c1ccccc1)[C@@H](O)C(=O)O)c1ccccc1`, the IC50 was above 10000 nM.

On to `OCc1cccc(Nc2ccnc3cc(Cl)ccc23)c1`, for which the IC50 was 300 nM.

On to `O=C(N[C@@H](c1ccccc1)[C@@H](O)C(=O)NCCNc1ccnc2cc(Cl)ccc12)c1ccccc1`, for which the midpoint of inhibition, the IC50, lay at 560 nM.

For `O=C(N[C@@H](c1ccccc1)[C@@H](O)C(=O)NCCCNc1ccnc2cc(Cl)ccc12)c1ccccc1`, the IC50 is 480 nM.

`[N-]=[N+]=NCCCNc1ccnc2cc(Cl)ccc12`: the concentration for half-maximal inhibition (IC50) came out at 170 nM.

`[N-]=[N+]=NCc1cccc(Nc2ccnc3cc(Cl)ccc23)c1` came in with an IC50 of 550 nM.

`[N-]=[N+]=NCc1ccccc1Nc1ccnc2cc(Cl)ccc12` registered a 50% inhibitory concentration (IC50) of 220 nM.

Molecule `O=C(N[C@@H](c1ccccc1)[C@@H](O)C(=O)NCc1cn(CCNc2ccnc3cc(Cl)ccc23)nn1)c1ccccc1` registered an IC50 of 2710 nM.

In turn, `O=C(N[C@@H](c1ccccc1)[C@@H](O)C(=O)NCc1cn(CCCNc2ccnc3cc(Cl)ccc23)nn1)c1ccccc1` came in with an IC50 of 1690 nM.

The molecule `O=C(N[C@@H](c1ccccc1)[C@@H](O)C(=O)NCc1cn(Cc2cccc(Nc3ccnc4cc(Cl)ccc34)c2)nn1)c1ccccc1` registered an IC50 of 280 nM.

With `O=C(N[C@@H](c1ccccc1)[C@@H](O)C(=O)NCc1cn(Cc2ccccc2Nc2ccnc3cc(Cl)ccc23)nn1)c1ccccc1`, the half-maximal inhibitory concentration (IC50) is 1050 nM.

`CC(=O)O[C@@H](C(=O)O)[C@@H](NC(=O)c1ccccc1)c1ccccc1` yielded an IC50 above 10000 nM.

`C[C@H]1[C@H](OC(=O)[C@H](O)[C@@H](NC(=O)c2ccccc2)c2ccccc2)O[C@@H]2O[C@@]3(C)CC[C@H]4[C@H](C)CC[C@@H]1[C@@]24OO3` yielded an IC50 of 5 nM.

Regarding `CC(=O)O[C@@H](C(=O)O[C@@H]1O[C@@H]2O[C@@]3(C)CC[C@H]4[C@H](C)CC[C@@H]([C@H]1C)[C@@]24OO3)[C@@H](NC(=O)c1ccccc1)c1ccccc1`, 5 nM corresponded to half-maximal inhibition (IC50).

The molecule `OCc1ccccc1Nc1ccnc2cc(Cl)ccc12` yielded an IC50 of 40 nM.

`O=C(N[C@@H](c1ccccc1)[C@@H](O)C(=O)OCCNc1ccnc2cc(Cl)ccc12)c1ccccc1` displayed an IC50 of 390 nM.

Regarding `CC(=O)O[C@@H](C(=O)OCCNc1ccnc2cc(Cl)ccc12)[C@@H](NC(=O)c1ccccc1)c1ccccc1`, the half-inhibitory concentration (IC50) came out at 220 nM.

Take `O=C(N[C@@H](c1ccccc1)[C@@H](O)C(=O)OCCCNc1ccnc2cc(Cl)ccc12)c1ccccc1`: 130 nM corresponded to half-maximal inhibition (IC50).

Take `CC(=O)O[C@@H](C(=O)OCCCNc1ccnc2cc(Cl)ccc12)[C@@H](NC(=O)c1ccccc1)c1ccccc1`: inhibition was half-maximal at 160 nM (IC50).

In the case of `OCCNc1ccnc2cc(Cl)ccc12`, the half-maximal inhibitory concentration (IC50) came out at 550 nM.

`OCCCNc1ccnc2cc(Cl)ccc12` returned an IC50 of 410 nM.

Molecule `[N-]=[N+]=NCCNc1ccnc2cc(Cl)ccc12` yielded an IC50 of 290 nM.

`C[C@H]1[C@@H](O)O[C@@H]2O[C@@]3(C)CC[C@H]4[C@H](C)CC[C@@H]1[C@@]24OO3` (mixture of isomers) [ARTENIMOL] yielded an IC50 of 3 nM.

As for `C[C@@H]1CC[C@H]2[C@@H](C)C(=O)O[C@@H]3O[C@@]4(C)CC[C@@H]1[C@]32OO4` [ARTEMISININ], half-maximal inhibition (IC50) required 15 nM.
